Consider 21 molecules from patent publication US10316017B2, “COT modulators and methods of use thereof” (Gilead Sciences, Inc., priority 2015, dated 2019).

Test [1] has as its system TNFα production in LPS-stimulated human monocytes. The test is described as follows: Cot Monocyte TNFα Cell Based Assay. Conditions: Homo sapiens, Monocyte, read-out: EC50 TNF. The gist of the method:
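Human monocytes (5,000 cells/well) pretreated with compound for 1 hour at 37° C (0.5% DMSO), then stimulated with 50 pg/ml LPS for 4 hours. Total TNFα measured by TR-FRET after overnight antibody incubation at room temp, expressed as percent of control between unstimulated and stimulated cells.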

The target of test [2] is T1, human Cot catalytic domain (30-397 amino acids) (Homo sapiens, UniProt P41279).
T1 construct: Purified recombinant human Cot catalytic domain (30-397 amino acids) was purchased from Cama Biosciences; purchased Cama Biosciences (so in the source)
T1 sequence (P41279 30-397): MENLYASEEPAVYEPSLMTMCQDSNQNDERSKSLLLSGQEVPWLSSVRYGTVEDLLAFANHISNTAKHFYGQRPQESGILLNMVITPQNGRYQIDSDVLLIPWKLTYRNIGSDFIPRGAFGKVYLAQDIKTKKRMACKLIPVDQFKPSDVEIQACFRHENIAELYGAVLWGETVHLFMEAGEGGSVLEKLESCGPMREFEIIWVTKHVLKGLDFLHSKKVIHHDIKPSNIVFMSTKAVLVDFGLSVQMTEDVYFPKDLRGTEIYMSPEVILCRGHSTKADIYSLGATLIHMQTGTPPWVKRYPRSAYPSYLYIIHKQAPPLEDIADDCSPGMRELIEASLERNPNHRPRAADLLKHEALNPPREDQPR
The test is described as follows: High Throughput Cot Biochemical Assay (KinEASE TR-FRET). Conditions: read-out: IC50 HTRF. The procedure, abridged:
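Recombinant human Cot catalytic domain (aa 30-397), 5 nM, with 1 μM STK3 peptide and 400 μM ATP in MOPS pH 7.0 buffer with MgOAc, DTT, BSA, NP-40, glycerol, 0.1% DMSO. Phosphorylated XL665-peptide detected by Eu-[…] antibody TR-FRET.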
In general terms: TR-FRET usually uses a lanthanide donor and a delayed reading to cut background.

The mark [3] stands for this setting: LPS-stimulated human monocytes, TNFα TR-FRET.
The mark [4] stands for this setting: Cot KinEASE TR-FRET, 400 μM ATP.
Setting [5] is: TNFα in LPS-stimulated human monocytes.
Where [6] appears, read: Cot KinEASE TR-FRET (HTRF) biochemical assay, 400 μM ATP.
The mark [7] stands for this setting: Cot biochemical HTRF (KinEASE TR-FRET) assay.

Broadly, the EC50 is the concentration that produces a half-maximal response. The IC50 is the concentration that gives 50% inhibition.

Molecules are shown by their SMILES. Like-named read-outs stand apart in the source and are kept apart here. Some results are limits rather than exact numbers.

As to `CC(C)(C)CNc1c(C#N)cnc2c(C#N)cc(N[C@H](c3cn(C4(C#N)CC4)nn3)c3ccccc3C(F)F)cc12` [Example 1025, (S)-6-(((1-(1-cyanocyclopropyl)-1H-1,2,3-triazol-4-yl)(2-(difluoromethyl)phenyl)methyl)amino)-4-(neopentylamino)quinoline-3,8-dicarbonitrile], the EC50 in test [1] (setting [3]) came out at 131 nM. For the same molecule, the IC50 in test [2] (setting [4]) came out at 10 nM.
Take `[2H]C(Nc1cc(Cl)c2ncc(C#N)c(NC3C4CCCC43)c2c1)(c1ccc(F)cc1)c1cn(C2CC2)nn1` (stereo in doubt) [Example 242, 4-(bicyclo[3.1.0]hexan-6-ylamino)-8-chloro-6-(((S)-(1-cyclopropyl-1H-1,2,3-triazol-4-yl)(4-fluorophenyl)methyl-d)amino)quinoline-3-carbonitrile]: the EC50 in test [1] (setting [5]) came to 270 nM. Besides, the IC50 in test [2] (setting [6]) came to 8 nM.
As to `Cc1cc(F)ccc1[C@H](Nc1cc(C#N)c2ncc(C#N)c(NCC(C)(C)C)c2c1)c1cn(C2(C(F)F)CC2)nn1` [Example 1083, (S)-6-(((1-(1-(difluoromethyl)cyclopropyl)-1H-1,2,3-triazol-4-yl)(4-fluoro-2-methylphenyl)methyl)amino)-4-(neopentylamino)quinoline-3,8-dicarbonitrile], in test [1] (setting [3]), the EC50 came to 63 nM. For the same molecule, the concentration for half-maximal inhibition (IC50) in test [2] (setting [4]) worked out at 13 nM.
Turning to `CC(C)(C)CNc1c(C#N)cnc2c(C#N)cc(N[C@@H](c3ccc(F)cc3)c3cn(C4(c5cccnc5)CC4)nn3)cc12` [Example 974, (S)-6-(((4-fluorophenyl)(1-(1-(pyridin-3-yl)cyclopropyl)-1H-1,2,3-triazol-4-yl)methyl)amino)-4-(neopentylamino) quinoline-3,8-dicarbonitrile], the EC50 in test [1] (setting [3]) amounted to 46 nM. Also, the IC50 in test [2] (setting [4]) was found to be 46 nM.
With `N#Cc1cnc2c(Cl)cc(N[C@@H](c3ccc(F)cc3)c3c[nH]nn3)cc2c1N[C@H](CO)c1ccccc1` [Example 433, 8-chloro-6-(((S)-(4-fluorophenyl)(1H-1,2,3-triazol-4-yl)methyl)amino)-4-(((S)-2-hydroxy-1-phenylethyl)amino)quinoline-3-carbonitrile], in test [1] (setting [5]), the EC50 was 1380 nM. For the same molecule, the IC50 in test [2] (setting [7]) came to 31 nM.
For `CC(C)(C)N1CCC(n2cc([C@@H](Nc3cc(Cl)c4ncc(C#N)c(NCCc5ccccc5)c4c3)c3ccc(Cl)cc3)nn2)CC1` [Example 703, (S)-6-(((1-(1-(tert-butyl)piperidin-4-yl)-1H-1,2,3-triazol-4-yl)(4-chlorophenyl)methyl)amino)-8-chloro-4-(phenethylamino)quinoline-3-carbonitrile] the same measures were 12000 nM and 95 nM.
`CC[N+](C)(CC)CCn1cc([C@@H](Nc2cc(Cl)c3ncc(C#N)c(Nc4ccc(Cl)c(Cl)c4F)c3c2)c2ccccc2)nn1` [Example 530, (S)-2-(4-(((8-chloro-3-cyano-4-((3,4-dichloro-2-fluorophenyl)amino)quinolin-6-yl)amino)(phenyl)methyl)-1H-1,2,3-triazol-1-yl)-N,N-diethyl-N-methylethan-1-aminium]: in test [1] (setting [5]), the EC50 was greater than 10000 nM. Moreover, the concentration for half-maximal inhibition (IC50) in test [2] (setting [7]) came to 198 nM.
Turning to `CS(=O)(=O)c1cccc([C@H](Nc2cc(Cl)c3ncc(C#N)c(Nc4ccc(Cl)c(Cl)c4F)c3c2)c2c[nH]nn2)c1` [Example 462, (S)-8-chloro-4-((3,4-dichloro-2-fluorophenyl)amino)-6-(((3-(methylsulfonyl)phenyl) (1H-1,2,3-triazol-4-yl)methyl)amino)quinoline-3-carbonitrile], the EC50 in test [1] (setting [5]) is 787 nM. Also, in test [2] (setting [7]), the IC50 was 17 nM.
`Cc1c(C#N)cccc1[C@H](Nc1cc(Cl)c2ncc(C#N)c(NCC(C)(C)C(F)(F)F)c2c1)c1cn(C2(C(F)F)CC2)nn1` [Example 1089, (S)-8-chloro-6-(((3-cyano-2-methylphenyl)(1-(1-(difluoromethyl)cyclopropyl)-1H-1,2,3-triazol-4-yl)methyl)amino)-4-((3,3,3-trifluoro-2,2-dimethylpropyl)amino)quinoline-3-carbonitrile]: in test [1] (setting [3]), the EC50 was 23 nM. The IC50 in test [2] (setting [4]) was determined as 7 nM.
As for `N#Cc1cnc2c(Cl)cc(N[C@@H](c3ccccc3)c3cn(CC(F)F)nn3)cc2c1Nc1ccc(F)c(Cl)c1` [Example 669, (S)-8-chloro-4-((3-chloro-4-fluorophenyl)amino)-6-(((1-(2,2-difluoroethyl)-1H-1,2,3-triazol-4-yl)(phenyl)methyl)amino) quinoline-3-carbonitrile], in test [1] (setting [5]), the EC50 stood at 1090 nM. Moreover, the concentration for half-maximal inhibition (IC50) in test [2] (setting [7]) was determined as 39 nM.
Take `CC(C)(C)N1CCC(n2cc([C@@H](Nc3cc(Cl)c4ncc(C#N)c(N[C@@H]5CCc6ccccc65)c4c3)c3ccccc3)nn2)CC1` [Example 583, 6-(((S)-(1-(1-(tert-butyl)piperidin-4-yl)-1H-1,2,3-triazol-4-yl)(phenyl)methyl)amino)-8-chloro-4-(((R)-2,3-dihydro-1H-inden-1-yl)amino)quinoline-3-carbonitrile]: the EC50 in test [1] (setting [5]) came to 4360 nM. Besides, the IC50 in test [2] (setting [7]) was determined as 1000 nM.
As to `CC[C@@H](Nc1c(C#N)cnc2c(Cl)cc(N[C@@H](c3cccc(F)c3)c3cn(C4CC4)nn3)cc12)c1ccccc1` [Example 272, 8-chloro-6-(((S)-(1-cyclopropyl-1H-1,2,3-triazol-4-yl)(3-fluorophenyl)methyl)amino)-4-(((R)-1-phenylpropyl)amino)quinoline-3-carbonitrile], the EC50 in test [1] (setting [5]) came to 215 nM. In addition, the IC50 in test [2] (setting [6]) was 12 nM.
Consider `[2H][C@@](Nc1cc(C(C)=O)c2ncc(C#N)c(N[C@H](CCC#N)c3ccccc3)c2c1)(c1cn(C2CC2)nn1)c1ccccc1Cl` [Example 939, 8-acetyl-6-(((S)-(2-chlorophenyl)(1-cyclopropyl-1H-1,2,3-triazol-4-yl)methyl-d)amino)-4-(((R)-3-cyano-1-phenylpropyl)amino) quinoline-3-carbonitrile], for which the EC50 in test [1] (setting [3]) came out at 92 nM. Also, in test [2] (setting [4]), the IC50 turned out to be 4 nM.
On to `Cc1nonc1C(Nc1cc(Cl)c2ncc(C#N)c(Nc3ccc(F)c(Cl)c3)c2c1)c1ccc(F)cc1` (stereo not drawn) [Example 805, 8-chloro-4-((3-chloro-4-fluorophenyl)amino)-6-(((4-fluorophenyl)(4-methyl-1,2,5-oxadiazol-3-yl)methyl)amino)quinoline-3-carbonitrile], for which, in test [1] (setting [5]), the EC50 is greater than 1000 nM. Besides, the IC50 in test [2] (setting [7]) is 588 nM.
On to `Cc1c([C@H](Nc2cc(Cl)c3ncc(C#N)c(NCC(C)(C)C)c3c2)c2cn(C3(C(F)F)CC3)nn2)cccc1-n1cnnc1` [Example 1070, (S)-8-chloro-6-(((1-(1-(difluoromethyl)cyclopropyl)-1H-1,2,3-triazol-4-yl)(2-methyl-3-(4H-1,2,4-triazol-4-yl)phenyl)methyl)amino)-4-(neopentylamino)quinoline-3-carbonitrile], for which, in test [1] (setting [3]), the EC50 is 272 nM. In addition, the IC50 in test [2] (setting [4]) was 2 nM.
As for `[2H][C@@](Nc1cc(I)c2ncc(C#N)c(NCC(C)(C)C)c2c1)(c1cn(C2CC2)nn1)c1ccccc1Cl` [Example 953, (S)-6-(((2-chlorophenyl)(1-cyclopropyl-1H-1,2,3-triazol-4-yl)methyl-d)amino)-8-iodo-4-(neopentylamino)quinoline-3-carbonitrile], the EC50 in test [1] (setting [3]) is no less than 1000 nM. Besides, the concentration for half-maximal inhibition (IC50) in test [2] (setting [4]) worked out at 111 nM.
`Cn1cnc(C(Nc2cc(Cl)c3ncc(C#N)c(Nc4ccc(F)c(Cl)c4)c3c2)c2ccccc2)c1` (stereo not drawn) [Example 895, 8-chloro-4-((3-chloro-4-fluorophenyl)amino)-6-(((1-methyl-1H-imidazol-4-yl)(phenyl)methyl)amino) quinoline-3-carbonitrile]: the concentration giving a half-maximal response (EC50) in test [1] (setting [5]) is 1000 nM. The concentration for half-maximal inhibition (IC50) in test [2] (setting [7]) was 56 nM.
Take `[2H][C@](Nc1cc(C#N)c2ncc(C#N)c(NCC(C)(C)C)c2c1)(c1cccc(C#N)c1)c1cn(C2(CF)CC2)nn1` [Example 1007, (S)-6-(((3-cyanophenyl)(1-(1-(fluoromethyl)cyclopropyl)-1H-1,2,3-triazol-4-yl)methyl-d)amino)-4-(neopentylamino)quinoline-3,8-dicarbonitrile]: in test [1] (setting [3]), the EC50 was 66 nM. Moreover, the IC50 in test [2] (setting [4]) amounted to 2 nM.
Regarding `[2H][C@](Nc1cc(Cl)c2ncc(C#N)c(Nc3ccc(Cl)c(Cl)c3F)c2c1)(c1ccccc1)c1c[nH]nn1` [Example 463, (S)-8-chloro-4-((3,4-dichloro-2-fluorophenyl)amino)-6-((phenyl(1H-1,2,3-triazol-4-yl)methyl-d)amino)quinoline-3-carbonitrile], the EC50 in test [1] (setting [5]) is 1410 nM. The IC50 in test [2] (setting [7]) was determined as 144 nM.
For `N#Cc1cnc2c(Cl)cc(N[C@@H](c3ccccc3)c3cn([C@@H]4CCN(C5COC5)C[C@H]4O)nn3)cc2c1Nc1ccc(F)c(Cl)c1` [Example 497, 8-chloro-4-((3-chloro-4-fluorophenyl)amino)-6-(((S)-(1-((3R,4R)-3-hydroxy-1-(oxetan-3-yl)piperidin-4-yl)-1H-1,2,3-triazol-yl)(phenyl)methyl)amino)quinoline-3-carbonitrile], the EC50 in test [1] (setting [5]) came out at 985 nM. Also, the IC50 in test [2] (setting [7]) came to 26 nM.
As for `[2H][C@](Nc1cc(Cl)c2ncc(C#N)c(NC(CCC#N)c3ccccc3)c2c1)(c1ccc(F)cc1)c1cn(C2CC2)nn1` (stereo partly drawn) [Example 302, 8-chloro-4-((3-cyano-1-phenylpropyl)amino)-6-(((S)-(1-cyclopropyl-1H-1,2,3-triazol-4-yl)(4-fluorophenyl)methyl-d)amino)quinoline-3-carbonitrile], the EC50 in test [1] (setting [5]) was determined as 74 nM. Moreover, the IC50 in test [2] (setting [6]) was found to be 3 nM.
